Assay results: patent publication US20250295113A1, “COMPOSITION AND METHOD FOR CONTROLLING WEEDS” (priority 2022, published 2025)

Key:
blanket crabgrass = assay: Example 4: blanket crabgrass control trial in Floratam St Augustinegrass; format: in vivo, blanket crabgrass (Digitaria serotina); settings: quinclorac 573 g ai/ha; two applications, 21-day interval
From the text: (§1) Two applications were made on a 21-day interval.

[1] = test system: St Augustinegrass variety 'Floratam'; assay: Example 1: Floratam St Augustinegrass phytotoxicity trial; settings: quinclorac alone, both formulations, 573 g ai/ha, two applications on 21-day interval
Torpedograss = assay: Example 3: Torpedograss control trial; format: in vivo, Torpedograss (Panicum repens); settings: quinclorac 573 g ai/ha with and without metcamifen 75 g ai/ha; two applications, 21-day interval
From the text: as §1

In the case of `O=C(O)c1c(Cl)ccc2cc(Cl)cnc12` [Quinclorac, 3,7-dichloro-8-quinolinecarboxylic acid], the “blanket crabgrass control (in words)” value (blanket crabgrass) is reported as “excellent, significant control”, the “injury to Floratam St Augustinegrass (in words)” value [1] is reported as “significant injury” and the “Torpedograss control / efficacy (in words)” value (Torpedograss) is reported as “provided control of Torpedograss”.
